Measured values: ChEMBL document CHEMBL1150999, “Synthesis and biological activities of new conformationally fixed analogues of ()-indolactam-V, the core structure of tumor-promoting teleocidins” (1995)

Key:
Type in all cases: functional
[1] = system: Human gammaherpesvirus 4; assay: In vitro ability of compound to induce Epstein-Barr virus early antigen (EBV-EA) activity at 10 e-5 M concentration
[2] = system: Human gammaherpesvirus 4; assay: In vitro ability of compound to induce Epstein-Barr virus early antigen (EBV-EA) activity at 10 e-7 M concentration
[3] = system: Human gammaherpesvirus 4; assay: In vitro ability of compound to induce Epstein-Barr virus early antigen (EBV-EA) activity at 10 e-6 M concentration

SMILES	Activity [1]	Activity [2]	Activity [3]
Cc1ccc2[nH]cc3c2c1N(C)[C@@H](C(C)C)C(=O)N[C@H](CO)C3	9.4%	0.3%	1.4%
Cc1cc2ccc3[nH]cc4c3c2n1[C@@H](C(C)C)C(=O)N[C@H](CO)C4	36.1%	12.7%	34%
CC(C)[C@H]1C(=O)N[C@H](CO)Cc2c[nH]c3ccc4c(c23)N1[C@@H](C)C4	17.8%	0.2%	0.8%
CC(C)[C@H]1C(=O)N[C@H](CO)Cc2c[nH]c3ccc4c(c23)N1[C@H](C)C4	16%	1.2%	14.1%
CC(C)[C@H]1C(=O)N[C@H](CO)Cc2c[nH]c3cccc(c23)N1C [INDOLACTUM]	35%	7.7%	19%
